Literature values, collected in US20080044452A1, “DRUG DELIVERY SYSTEM FOR TREATMENT OF TRANSITIONAL CELL CARCINOMA” (priority 2006, published 2008).

CO[C@@]12[C@H](COC(N)=O)C3=C(C(=O)C(C)=C(N)C3=O)N1C[C@@H]1N[C@@H]12 [Mitomycin C]
stability in acidic urine: not stable in acidic urine
